21 compounds from PubChem BioAssay (NCI) can be followed below.

Some test systems named below: MDA-MB-435; PC-3 prostate; RXF 393 renal; OVCAR-5 ovarian; OVCAR-8 ovarian; HCC-2998 colon; HCT-116 colon; SN12C renal; TK-10 renal; ACHN renal; A498 renal.
What all share (experiment): DTP human tumour cell line panel, 48 h

Structures are written as SMILES.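 Where inhibition never reached the appropriate level, the endpoint shown equals the highest concentration tested. Otherwise, values were interpolated linearly from a five-concentration, 48-hour dose response in 96-well plates. TGI: concentration producing complete growth inhibition.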 Where a SMILES comes first, the peptide text is derived from it. [ ]: non-standard residue; d: D form. The star is where a group is joined. Bn2Val = CC(C)[C@@H](C(=O)*)N(Cc1ccccc1)Cc1ccccc1; NMeV = CN[C@H](C(=O)O)C(C)C; X29 = COc1ccc(CN*)c(OC)c1; dNMeA = CN[C@H](C)C(=O)O

As usually defined, the TGI is the concentration giving total growth inhibition. A higher TGI goes with less potent growth arrest. As for `O=S(=O)(O)c1cccc2cccc(N=Nc3c(O)ccc4ccccc34)c12`, the concentration for total growth inhibition (TGI) in the assay with MDA-MB-435, in the assay on PC-3 prostate, in the assay with RXF 393 renal, in the assay on OVCAR-5 ovarian, with OVCAR-8 ovarian and in the assay with HCC-2998 colon was above 100 µM each time. The TGI with HCT-116 colon, in the assay on SN12C renal, in the assay with TK-10 renal, in the assay with ACHN renal and in the assay on A498 renal was above 100 µM throughout.

With `COC(=O)[C@@](C)(COC(=O)C(C)(C)C)NC(=O)OC(C)(C)C`, the concentration for total growth inhibition (TGI) in the assay with MDA-MB-435, in the assay with PC-3 prostate, in the assay on RXF 393 renal, with OVCAR-5 ovarian, with OVCAR-8 ovarian and in the assay on HCC-2998 colon was above 100 µM throughout. Further, the total growth inhibition concentration (TGI) in the assay with HCT-116 colon, in the assay with SN12C renal, in the assay with TK-10 renal, with ACHN renal and in the assay on A498 renal was above 100 µM in each case.

Consider `O=[N+]([O-])c1ccc2oc(=Nc3ccccc3)c(Nc3ccccc3)nc2c1`, for which the concentration for total growth inhibition (TGI) with MDA-MB-435, in the assay with PC-3 prostate, in the assay with RXF 393 renal, in the assay on OVCAR-5 ovarian, in the assay with OVCAR-8 ovarian and with HCC-2998 colon was above 100 µM in each case. The TGI in the assay with HCT-116 colon, in the assay with SN12C renal, in the assay on TK-10 renal, in the assay on ACHN renal and with A498 renal was above 100 µM each time.

As for `CCOc1ccc(N=NC2C(=O)N(C(=O)CC(=O)Nc3ccccc3)N=C2C)cc1` (stereo not drawn), the TGI with MDA-MB-435 was 23.8 µM; in the assay on PC-3 prostate it was above 100 µM; in the assay with RXF 393 renal, above 100 µM; in the assay with OVCAR-5 ovarian it was above 100 µM; in the assay with OVCAR-8 ovarian, above 100 µM; in the assay on HCC-2998 colon, above 100 µM. The total growth inhibition concentration (TGI) in the assay with HCT-116 colon, in the assay with SN12C renal, in the assay on TK-10 renal, in the assay with ACHN renal and in the assay with A498 renal was above 100 µM each time.

Regarding `CS[C@]12[C@@H]3C(=O)N(C)C(=O)[C@@H]3[C@](C)(C(=O)N1C)C(=O)N2c1ccccc1`, the TGI with MDA-MB-435, with PC-3 prostate, in the assay on RXF 393 renal, in the assay on OVCAR-5 ovarian, in the assay with OVCAR-8 ovarian and with HCC-2998 colon was above 100 µM each time. The TGI with HCT-116 colon, with SN12C renal, with TK-10 renal, in the assay with ACHN renal and with A498 renal was above 100 µM in each case.

As to `CC(C)(C)CC(C)(C)NC(=S)NO`, the TGI in the assay with MDA-MB-435, in the assay with PC-3 prostate, in the assay on RXF 393 renal, in the assay with OVCAR-5 ovarian, in the assay on OVCAR-8 ovarian and with HCC-2998 colon was above 100 µM throughout. For the same compound, the total growth inhibition concentration (TGI) with HCT-116 colon, in the assay on SN12C renal, with TK-10 renal, with ACHN renal and in the assay on A498 renal was above 100 µM each time.

On to `CN(C)c1ccc(/C=C/C(=O)N[C@@H]2C(=O)N3[C@@H]2SC(C)(C)[C@@H]3C(=O)O)cc1`, for which the TGI in the assay on MDA-MB-435, in the assay on PC-3 prostate, in the assay with RXF 393 renal, with OVCAR-5 ovarian, in the assay on OVCAR-8 ovarian and in the assay on HCC-2998 colon was above 100 µM in each case. The TGI with HCT-116 colon, in the assay on SN12C renal, in the assay on TK-10 renal, with ACHN renal and in the assay on A498 renal was above 100 µM in each case.

For `COC(=O)c1c(CC(Cc2ccc3c(c2)CCCC3)C(=O)OC)ccc2c1CCCC2` (stereo not drawn), the TGI with MDA-MB-435, with PC-3 prostate, with RXF 393 renal, with OVCAR-5 ovarian, in the assay with OVCAR-8 ovarian and in the assay with HCC-2998 colon was above 100 µM in each case. Further, the total growth inhibition concentration (TGI) with HCT-116 colon, in the assay with SN12C renal, with TK-10 renal, in the assay with ACHN renal and with A498 renal was above 100 µM throughout.

On to `O=C(O)CC[P+](c1ccccc1)(c1ccccc1)c1ccccc1`, for which the TGI in the assay on MDA-MB-435, in the assay on PC-3 prostate, in the assay on RXF 393 renal, in the assay on OVCAR-5 ovarian, in the assay on OVCAR-8 ovarian and with HCC-2998 colon was above 100 µM each time. The TGI in the assay on HCT-116 colon was above 100 µM; in the assay with SN12C renal, 54.7 µM; in the assay on TK-10 renal, above 100 µM; in the assay with ACHN renal, above 100 µM; in the assay with A498 renal, above 100 µM.

In the case of `C=C[C@@]1(O)CCCC[C@@H]1CC(Sc1ccccc1)Sc1ccccc1`, the TGI was determined as 33 µM with MDA-MB-435; 29.1 µM in the assay with PC-3 prostate; 30.5 µM in the assay on RXF 393 renal; 32.9 µM in the assay on OVCAR-5 ovarian; 34.1 µM in the assay with OVCAR-8 ovarian; 26.6 µM with HCC-2998 colon. Besides, the TGI in the assay with HCT-116 colon was 31.4 µM; in the assay with SN12C renal it was 34.3 µM; in the assay on TK-10 renal, 30.9 µM; in the assay on ACHN renal, above 100 µM; in the assay on A498 renal, 85 µM.

Take `Cc1nc2n(c1/C=C1/C(=O)Nc3ccccc31)CCS2`: the total growth inhibition concentration (TGI) in the assay with MDA-MB-435 is 36.1 µM; in the assay on PC-3 prostate, above 100 µM; with RXF 393 renal, 71.3 µM; with OVCAR-5 ovarian, above 100 µM; in the assay on OVCAR-8 ovarian, above 100 µM; in the assay on HCC-2998 colon it was 61.9 µM. For the same compound, the TGI with HCT-116 colon, in the assay with SN12C renal, in the assay with TK-10 renal, in the assay on ACHN renal and in the assay with A498 renal was above 100 µM each time.

Take `Cc1ccc(NC2=NCCO2)c2c1CCC2`: the TGI with MDA-MB-435 was 46.2 µM; in the assay with PC-3 prostate, above 100 µM; in the assay with RXF 393 renal it was above 100 µM; in the assay with OVCAR-5 ovarian, above 100 µM; in the assay with OVCAR-8 ovarian, above 100 µM; in the assay on HCC-2998 colon it was 74.6 µM. Also, the total growth inhibition concentration (TGI) is 80 µM in the assay on HCT-116 colon; above 100 µM in the assay with SN12C renal; above 100 µM in the assay on TK-10 renal; above 100 µM with ACHN renal; above 100 µM in the assay on A498 renal.

For `CC1(C)C(CCO)CC1n1ccc(=O)[nH]c1=O` (stereo not drawn), the TGI in the assay on MDA-MB-435, in the assay on PC-3 prostate, in the assay on RXF 393 renal, in the assay with OVCAR-5 ovarian, with HCC-2998 colon and in the assay with HCT-116 colon was above 100 µM in each case. The TGI in the assay with SN12C renal, with TK-10 renal, with ACHN renal and with A498 renal was above 100 µM throughout.

`Nc1nccc(NCC2(CO)CCC2)n1`: the TGI in the assay with MDA-MB-435, in the assay with PC-3 prostate, with RXF 393 renal, in the assay on OVCAR-5 ovarian, with OVCAR-8 ovarian and with HCC-2998 colon was above 100 µM each time. Besides, the TGI was above 100 µM in the assay with HCT-116 colon; above 100 µM in the assay on SN12C renal; 77.4 µM in the assay on TK-10 renal; above 100 µM in the assay with ACHN renal; above 100 µM with A498 renal.

In the case of `COc1ccc(CNC(=O)[C@@H]2CCCN2C(=O)[C@@H](C)N(C)C(=O)[C@H](C(C)C)N(C)C(=O)[C@@H](NC(=O)[C@H](C(C)C)N(Cc2ccccc2)Cc2ccccc2)C(C)C)c(OC)c1` (Bn2Val-V[NMeV][dNMeA]P-X29), the TGI with MDA-MB-435 stood at 6.61 µM; in the assay on PC-3 prostate, 10.1 µM; with RXF 393 renal, 3.94 µM; in the assay on OVCAR-5 ovarian it was 3.13 µM; with OVCAR-8 ovarian, 57.6 µM; in the assay with HCC-2998 colon, 8.39 µM. Further, the TGI stood at 9.62 µM in the assay on HCT-116 colon; 3.25 µM in the assay on SN12C renal; 22.4 µM in the assay with TK-10 renal; 13.9 µM in the assay with ACHN renal; 8.69 µM in the assay with A498 renal.

On to `O=C1CC(C(OCc2ccccc2)C(OCc2ccccc2)C(COCc2ccccc2)OCc2ccccc2)CC(=O)N1` (stereo not drawn), for which the TGI in the assay on MDA-MB-435, in the assay on PC-3 prostate, with RXF 393 renal, with OVCAR-5 ovarian, in the assay with OVCAR-8 ovarian and in the assay with HCC-2998 colon was above 100 µM each time. Further, the TGI in the assay on HCT-116 colon, in the assay on SN12C renal, in the assay on TK-10 renal, in the assay with ACHN renal and in the assay on A498 renal was above 100 µM throughout.

As for `OCC(CCc1ccccc1I)C1=CCC2(CC1)OCCO2` (stereo not drawn), the TGI in the assay with MDA-MB-435 is 30.7 µM; with PC-3 prostate, 52.5 µM; with RXF 393 renal, 34.9 µM; in the assay on OVCAR-5 ovarian, 34.1 µM; in the assay on OVCAR-8 ovarian, 43.1 µM; in the assay with HCC-2998 colon, 43.4 µM. Moreover, the TGI in the assay with TK-10 renal was 50.7 µM; in the assay on ACHN renal, above 100 µM; in the assay on A498 renal it was 55.9 µM.

Regarding `[O-][n+]1c(CN2CCCCC2)nc2cccc3c2c1-c1ccccc1-3`, the total growth inhibition concentration (TGI) is 68 µM in the assay on MDA-MB-435; above 100 µM in the assay on PC-3 prostate; 31.1 µM in the assay with RXF 393 renal; 50.5 µM in the assay on OVCAR-5 ovarian; 98.2 µM in the assay with OVCAR-8 ovarian; 31.8 µM in the assay with HCC-2998 colon. In addition, the TGI worked out at 38.7 µM with HCT-116 colon; 46.1 µM in the assay with SN12C renal; 67.5 µM in the assay with TK-10 renal; 70.5 µM in the assay on ACHN renal; 38.3 µM with A498 renal.

For the compound `O=Nn1c2ccccc2c2cc([N+](=O)[O-])ccc21`, the total growth inhibition concentration (TGI) with MDA-MB-435 was 32.8 µM; in the assay with PC-3 prostate it was 35 µM; with RXF 393 renal it was 30.8 µM; in the assay with OVCAR-5 ovarian, 47.7 µM; in the assay on OVCAR-8 ovarian it was 31.6 µM; in the assay with HCC-2998 colon, above 100 µM. Further, the concentration for total growth inhibition (TGI) in the assay on HCT-116 colon amounted to 32.5 µM; in the assay on SN12C renal it was 37 µM; in the assay with TK-10 renal, 32.1 µM; with ACHN renal it was 29.3 µM; with A498 renal, 26.9 µM.

Regarding `Cc1ccc(S(=O)(=O)[C@@H](Cl)[C@H]2N=C(Cl)NN=C2c2ccccc2)cc1`, the TGI in the assay with MDA-MB-435 was 51.4 µM; in the assay with PC-3 prostate it was 39.5 µM; in the assay with RXF 393 renal, 37.3 µM; with OVCAR-5 ovarian, above 100 µM; in the assay on OVCAR-8 ovarian, 44.6 µM; in the assay on HCC-2998 colon, above 100 µM. The concentration for total growth inhibition (TGI) in the assay with HCT-116 colon was above 100 µM; in the assay with SN12C renal, 54 µM; in the assay with TK-10 renal it was above 100 µM; in the assay with ACHN renal, above 100 µM; with A498 renal, 35.7 µM.

With `CCN(CC)CCCNC(=O)c1cc2cc(NC(=O)c3cc4cc([N+](=O)[O-])ccc4[nH]3)ccc2[nH]1`, the TGI in the assay with MDA-MB-435, in the assay with PC-3 prostate, with RXF 393 renal, in the assay on OVCAR-5 ovarian, in the assay with OVCAR-8 ovarian and in the assay on HCC-2998 colon was above 100 µM throughout. The TGI in the assay with HCT-116 colon is above 100 µM; with SN12C renal it was above 100 µM; in the assay with TK-10 renal, above 100 µM; in the assay on ACHN renal it was above 100 µM; in the assay with A498 renal it was 75.7 µM.
